Results reported in patent publication US20260027175A1, “COMPOSITIONS AND METHODS FOR TREATING A COGNITIVE DEFICIT” (priority 2022, published 2026).

Key:
c-Jun (substrate of JNK) = assay: Phospho c-Jun immunofluorescence, high content imaging; format: cell-based; details: reference treatment: 1 μM anisomycin 10 μg/mL, 30 min
Experimental: SACC was received as an aqueous stock solution. The different solutions were created by performing cascade dilutions in the culture medium.
Cells were seeded at 12 10^3 cells/well in 96 well plates and cultured for 24 h. Subsequently, cells were exposed to the different tested conditions (reference treatment: 1 μM anisomycin 10 μg/mL, 30 min). At the end of the treatment, the cells were processed for immunofluorescence with a specific antibody against the phosphorylated form of c-Jun. The fluorescent immune-staining was subsequently imaged by high content imaging. Single cell analysis of the phospho c-Jun immune-staining was performed.
The pharmacological modulators that decreased the cytotoxic effects of 1% SACC did it on the 1% were maximally effective at 50 h treatment. Therefore, the effect of SACC was studied after 50 h treatment with 0.1%; 0.3% and 1% SACC on phosphorylation level of the c-Jun (substrate of JNK).

BDNF = assay: Quantification of brain derived neurotrophic factor (BDNF) in hippocampus of ICV-OKA rats; format: in vivo, Wistar rats; details: ICV-OKA rats compared to sham group
Experimental: Intracerebroventricular injection of okadaic acid was performed according to the procedure of Kamat et al. (2010). Rats were anesthetized with thiopentone (Neon Laboratories, India, 45 mg/kg, i.p.). The scalp was shaved, cleaned, and cut to expose the skull. The head was positioned in a stereotaxic frame and a midline sagittal incision was made in the scalp. Burr holes were drilled in the skull on both sides over the lateral ventricles by using the following coordinates: 0.8 mm posterior to bregma; 1.5 mm lateral to sagittal suture and 3.6 mm beneath the surface of the brain (Paxinos et al., 1980). Okadaic acid (200 ng) was injected bilaterally making the total dose of 100 ng in each ventricle. The concentration of okadaic acid in aCSF was adjusted so as to deliver 4 μl of the solution. Sham animals received ICV injection of the same volume of aCSF. The skin was sutured after injection followed by daily application of antiseptic powder (Neosporin). Postoperatively, the rats were fed with oral glucose and normal pellet diet for 4 days, followed by normal pellet diet alone.
(§1) The experimental design is illustrated in FIG. 1. […] Memory impairment was assessed by Morris Water Maze on days 15th, 21st, 28th. […]
The quantification of BDNF was done with the help and instructions provided by Millipore, USA quantikine rat BDNF immunoassay kit.

ICV-OKA rats = assay: Cognitive performance in Morris water maze task, ICV-OKA rats; format: in vivo, Wistar rats; details: ICV injection 100 ng each ventricle, 15th day
Experimental: Adult male Wistar rats (200-230 g, 2 months old) were used.
Nuclear factor kappa-light-chain-enhancer of activated B cells (NF-KB) and BDNF ELISA kits were procured from Imegenex, San Diego, USA and Millipore, USA respectively. All other chemicals used for biochemical estimations were of analytical grade. SAAC was dissolved in double distilled water (DDW) while okadaic acid was dissolved in artificial cerebrospinal fluid (aCSF) (2.9 mM KCl, 147 mM NaCl, 1.7 mM CaCl2, 1.6 mM MgCl2, and 2.2 mM D-glucose).
(§2) Intracerebroventricular injection of okadaic acid was performed according to the procedure of Kamat et al. (2010). Rats were anesthetized with thiopentone (Neon Laboratories, India, 45 mg/kg, i.p.). The scalp was shaved, cleaned, and cut to expose the skull. The head was positioned in a stereotaxic frame and a midline sagittal incision was made in the scalp. Burr holes were drilled in the skull on both sides over the lateral ventricles by using the following coordinates: 0.8 mm posterior to bregma; 1.5 mm lateral to sagittal suture and 3.6 mm beneath the surface of the brain (Paxinos et al., 1980). […]
as §1
The acquisition and retention of memory was evaluated by using Morris water maze (Morris et al., 1982; Tuzcu and Baydas, 2006). […]

NF-κβ p65 subunit = assay: Quantification of NF-KB p65 unit (ActivELISA) in hippocampus of ICV-OKA rats; format: in vivo, Wistar rats; details: ICV-OKA administered rats
Experimental: as §2, with “1980). Okadaic acid (200 ng) was injected bilaterally making the total dose of 100 ng in each ventricle.” for “1980).”
as §1
The NF-KB/p65 ActivELISA kit (Imgenex, USA) was used to measure NF-KB-free p65 in the nuclear fraction of different brain regions. […] The NF-KB ActivELISA is a sandwich ELISA in which free p65 was captured by anti-p65 antibody-coated plates and the amount of bound p65 was detected by adding a second anti-p65 antibody followed by alkaline phosphatase conjugated secondary antibody using colorimetric detection in an ELISA plate reader at 405 nm. The results were expressed as ng/mg of protein.

Phospho-Tau in neurons = assay: Okadaic acid induced Tau hyper-phosphorylation in primary cortical neurons (Phospho-Tau/MAP2 immunofluorescence); format: cell-based, rat
Experimental: The potential efficacy of the test compound (SAAC) against Alzheimer's disease was evaluated using an in vitro model in which Tau hyper-phosphorylation Is Induced by pharmacological treatment.
The test compound was tested in culture medium at […], and 10%. Positive control of reversion of hyperphosphorylation was […] at 3 mM.
Primary cortical cultures from E 19 rat embryos.
Phospho-Tau intensity in neurons and percentage of neurons with hyperphosphorylated Tau.
Cortical neurons from E 19 rat embryos were harvested and plated in 96 well plates. After 9 days in vitro, cells were treated with LiCI at 3 mM for 24 hours as a positive neuroprotective control or the test compound (SAAC) at 7 different concentrations. Another plate was pre-treated with the test compound (SAAC) at 7 different concentrations for 4 hours.
At the end of treatment durations, cells were treated with okadaic acid (OKA) for 3 hours. The cells were then fixed and processed for immunofluorescence analysis of Phospho-Tau (P-Tau) in neurons (Phospho-Tau labelling and neuronal labelling with MAP2 antibody).
After 9 days in vitro, neurons were treated with LiCI at 3 mM for 24 hours as a positive neuroprotective control (FIG. 5) or the test compound (SAAC) at 7 different concentrations (FIG. 7 & FIG. 8). At the end of treatment duration, cells were treated with okadaic acid (OKA) for 3 hours. After Phospho-Tau and MAP2 labelling, the signals were acquired and the mean intensity of Phospho-Tau staining in the neurons as well as the percentage of neurons with a high Phospho-Tau level was assessed.

SMILES	c-Jun phosphorylation (c-Jun (substrate of JNK))	decrease in brain derived neurotrophic factors (BDNF)	lower ability to find the platform and learn its location (ICV-OKA rats)	elevation of NF-κβ p65 subunit in hippocampus (NF-κβ p65 subunit)	increase in the percentage of neurons with high Phospho-Tau levels (Phospho-Tau in neurons; 10 nM okadaic acid, 3 hours)	phosphorylation of Tau (Phospho-Tau in neurons; 10 nM okadaic acid, 4 h treatment experiment)	increase in the percentage of neurons with high Phospho-Tau levels (Phospho-Tau in neurons; 100 nM okadaic acid, 3 hours)	phosphorylation of the Tau protein (Phospho-Tau in neurons; okadaic acid 10 nM and 100 nM, 3 hours)	amount of phosphorylated tau in the axons and dendrites of the neurons (Phospho-Tau in neurons; okadaic acid treatment alone)
COc1ccc(C[C@H]2NC[C@H](O)[C@H]2OC(C)=O)cc1 [Aniosomycin, anisomycin]	induced c-Jun phosphorylation in the total population of treated cells	–	–	–	–	–	–	–	–
C=C1[C@@H](O)[C@@H]2O[C@]3(CC[C@H](/C=C/[C@@H](C)[C@@H]4CC(C)=C[C@@]5(O[C@H](C[C@@](C)(O)C(=O)O)CC[C@H]5O)O4)O3)CC[C@H]2O[C@@H]1[C@@H](O)C[C@H](C)[C@H]1O[C@@]2(CCCCO2)CC[C@H]1C [okadaic acid]	–	40%	1.5 fold	105%	~2 fold	not able to elicit any increase	~3 fold	increased the phosphorylation of the Tau protein in a dose dependent way	greatly increased
